In one series the test system is 5α-reductase. Description: Modulation of 5α-reductase activity (testosterone to DHT conversion, ELISA) in mouse fibroblasts after 48 hours of treatment. Format: cell-based. The settings on record: for % inhibition of 5α-reductase / Total DHT ng (±SE) / Inhibition of 5α-reductase activity in vitro (result in words): 0.1 mg/ml, 48 hours; for % inhibition of 5α-reductase / Total DHT ng (±SE): pre-incubation for 24 hours with testosterone 10 ng/ml; for % inhibition of 5α-reductase: confidence interval; for Total DHT ng (±SE): final table; for Testosterone, cell extract / Testosterone, supernatant / DHT, cell extract / DHT, supernatant / Final DHT, cell extract / Final DHT, supernatant / Total DHT produced: sample 100 μg/ml; for Testosterone, cell extract / Testosterone, supernatant / DHT, cell extract / DHT, supernatant: 48 h; for Testosterone, cell extract: Balb/c-3T3; for Testosterone, supernatant: Balb/c-3T3 pre-incubated 24 h with testosterone 10 ng/ml; for DHT, cell extract / DHT, supernatant: uncorrected measured DHT; for Final DHT, cell extract: corrected for testosterone crosslinking; for Final DHT, supernatant: measured DHT minus bovine serum DHT minus testosterone crosslinking; for Total DHT produced: per flask (supernatant 10 ml + cell extract 0.5 ml); for Inhibition of 5α-reductase activity in vitro (result in words): mouse fibroblasts Balb/c-3T3, versus untreated control. The procedure:
Assessment of the modulation of 5α-reductase activity after treatment for 48 hours with the above-stated compounds in a cell line of mouse fibroblasts.
For this test, the fibroblasts were pretreated with testosterone to increase the basal production of 5α-reductase, then they were treated with the above-mentioned compounds for 48 hours.
At the end of the treatment, the conversion of testosterone into DHT was measured in the treated and untreated cell cultures, using a two-way ELISA. This procedure enables an estimation of the percentage inhibition or stimulation of the specific activity of 5α-reductase.
As a positive control, we used a titrated extract of Serenoa repens (saw palmetto), a plant known in the pharmacopoeia for its capacity to inhibit 5α-reductase and recommended for said purpose in the treatment of prostatic hyperplasia in males.
The cell model used for the in vitro test consisted of mouse fibroblasts Balb/c-3T3. This cell line derives from fibroblasts of […] mouse embryos.
The samples of the above-described compounds were solubilised as follows: • 2,4,6-octatrien-1-ol: 1 mg/ml in absolute ethanol • alternative Boehmeria: 5 mg/ml in growth medium+5% DMSO • traditional Boehmeria: 2.5 mg/ml in growth medium+5% DMSO • Ajuga reptans extract: 5 mg/ml in growth medium+5% DMSO • Finasteride: 5 mg/ml in absolute ethanol • Serenoa repens: 10 μl/ml in absolute ethanol Treatment and Exposure Pre-Incubation
The cells were seeded in 25 cm^2 flasks (T25) in DMEM (Dulbecco's […]) with the addition of 10% FBS (foetal bovine serum). As soon as confluence was achieved, the cultures were treated for 24 hours with 10 ng/ml of testosterone.
After the pre-incubation phase, the cell cultures were treated with said samples at the final concentration of 0.1 mg/ml. The Serenoa repens extract at 0.1 mg/ml was used as a positive control, while the negative control consisted in plates treated with the solvent. Exposure was protracted for 48 hours in the incubator at 37° C., 5% CO2, renewing the medium every 24 hours. Each sample was tested in duplicate.
At the end of the experiment, a cell count was conducted to assess any cytotoxic effects. The of DHT and testosterone content was measured using immunodiagnostic tests (ELISA) in the extracellular (conditioned growth media) and in the intracellular (cell extracts) compartments.
At the end of the experiment, the growth medium was collected from each flask and a cell extract was prepared.
This was done in four stages: • trypsinisation of the cell layer in situ in the flask • centrifugation and collection of the cells in pellets • extraction with Triton X-100 (1% in basal medium) • ultrasonication for 30 minutes. DHT and Testosterone Measurement
The two hormones, DHT and testosterone, were measured both in the supernatant (extracellular DHT/testosterone) and in the cell extracts (intracellular DHT/testosterone).
It is therefore of fundamental importance to determine the quantity of testosterone remaining at the end of the test in order to distinguish it from the newly-synthesised DHT. Moreover, the presence of DHT in foetal bovine serum (FBS), the main component in the growth medium, represents a source of exogenous DHT that must be taken into account in calculating the DHT actually produced by the cells starting from the testosterone.
The method involves the composition of a standard curve, calculated in an appropriate range of concentrations, and uses specific antibodies immobilised on a solid substrate directed against DHT/testosterone, and a reagent that competes for binding to the antibody.

In a further series the test system is androgenetic alopecia. Description: Clinical pilot study, Group 1: androgenetic alopecia, topical administration on the scalp. Type of series: in vivo, human. The procedure: (§1) A clinical pilot study was also conducted to assess the efficacy of a composition according to the invention in the treatment of male and female androgenetic alopecia and alopecia greata.
(§2) In the composition according to the invention forming the object of this clinical study, said active principle was a salt, and a potassium salt in particular, of 2,4,6-octatrienoic acid, formulated for topical administration on the scalp, in a single daily dose.
Thirty individuals of both genders were recruited (15 males and 15 females) aged between 18 and 55 years, suffering from androgenetic alopecia (grades I-III according to the Hamilton scale for men, and I-II according to the Ludwig scale for women). Since this was a pilot study, an open trial was conducted, administering the composition of the invention.
Exclusion criteria from the study were as follows: • concomitant hormonal and/or pharmacological therapies; • pregnancy and breast-feeding; • systemic hormonal, metabolic and autoimmune diseases; • specific trichological treatments in the previous three months; • concomitant inflammatory diseases of the scalp, e.g. seborrhoeic dermatitis, irritative or allergic dermatitis.
The clinical and dermoscopic assessment of the individuals to treat focused on: hair shaft diameter, presence of a perifollicular halo, evaluation of the anagen phase by epiluminescence study of the bulb.
After the baseline assessment at T0, before starting the treatment, two evaluations after the treatment were conducted, one at T1 after 1 month, and one at T2 after 3 months.
At each follow-up assessment, a clinical evaluation was performed using epiluminescence to establish the hair shaft diameter in a previously-established and marked area (MoleMax II, Dermal Instruments Italia).

Another series concerns alopecia greata. Put plainly: Clinical pilot study, group with alopecia greata (area celsi), topical administration on the scalp. Type of series: in vivo, human. As to the method:
as §1, §2
Alopecia greata (also called area celsi) is a disease involving sudden hair loss typically giving rise to bald patches (or areas).
A significant characteristic of the evolutional stages of alopecia greata is the presence of “exclamation mark” hairs, so called because they appear tapered towards the base.
For the group of individuals treated, the pilot study only enabled us to identify a trend (clinical improvement, stability, worsening) within the short time span considered, i.e. from the baseline T0 before starting the treatment up to T2 after three months of treatment, based on the following parameters: • hair loss • progression of bald patches on the scalp • presence of exclamation mark hairs Results

Series [1] concerns transplanted hair follicles. Description: Further clinical study: topical scalp treatment around hair transplantation. Particulars: once a day from 15 days before to 90 days after the transplant. Format: in vivo, human.
Setting [2] is: T2 after 3 months, mean at T0 0.4 mm.
The mark [3] stands for this setting: T2 after 3 months, mean at T0 56%.
The mark [4] stands for this setting: single daily topical dose, epiluminescence, follow-up to T2 (3 months).
Where [5] appears, read: T0 to T2 (three months of treatment).

The text below walks through data of patent publication US9668984B2, “Use of compounds to inhibit 5 α-reductase enzyme activity, and pharmaceutical and cosmetic compostions containing them” (GIULIANI S.P.A., priority 2008, dated 2017).

Marks after values point to notes of the source that are not given here.

For `C/C=C/C=C/C=C/CO` [2,4,6-octatrien-1-ol, 2E,4E,6E-Octatrien-1-ol], in the series with 5α-reductase, the “% inhibition of 5α-reductase” value is given as 27-43%; the “Total DHT ng (±SE)” value was 2.3 (±0.1) ng; the “Testosterone, cell extract” value stood at 1 ng/mL; the “Testosterone, supernatant” value amounted to 1.25 ng/mL. Also, in the series with 5α-reductase, the “DHT, cell extract” value was found to be 450 pg/mL; the “DHT, supernatant” value is 425 pg/mL; the “Final DHT, cell extract” value was 363 pg/mL; the “Final DHT, supernatant” value was 216 pg/mL. Also, the “Total DHT produced” value in the series with 5α-reductase is listed as 2.34 ng.
Turning to `CC(C)(C)NC(=O)[C@H]1CC[C@H]2[C@@H]3CC[C@H]4NC(=O)C=C[C@]4(C)[C@H]3CC[C@]12C` [Finasteride], in the series on 5α-reductase, the “Inhibition of 5α-reductase activity in vitro (result in words)” value is listed as “no significant inhibitory effect”; the “% inhibition of 5α-reductase” value is given as 0-15* %; the “Total DHT ng (±SE)” value is reported as 3.6 (±0.3) ng; the “Testosterone, cell extract” value was 3.1 ng/mL. Moreover, in the series on 5α-reductase, the “Testosterone, supernatant” value is 0 ng/mL; the “DHT, cell extract” value came to 400 pg/mL; the “DHT, supernatant” value is 450 pg/mL; the “Final DHT, cell extract” value was determined as 130 pg/mL. In the series with 5α-reductase, the “Final DHT, supernatant” value was 350 pg/mL and the “Total DHT produced” value was 3.57 ng. The “Inhibition of 5α-reductase activity in vitro (result in words)” value with 5α-reductase (listed as finasteride) is reported as “no real inhibitory effect”.
Regarding `CC=CC=CC=CC(=O)[O-].[K+]` [potassium salt of 2,4,6-octatrienoic acid], the “Individuals treated with androgenetic alopecia parameters modified in a globally positive manner” value in the series on androgenetic alopecia (3 months topical treatment) stood at 83%. In the series with androgenetic alopecia (setting [2]), the “Hair shaft diameter at T2, Group A)” value amounted to 0.7 mm; the “Hair shaft diameter at T2, Group B)” value was determined as 0.6 mm; the “Hair shaft diameter at T2, Group C)” value came out at 0.4 mm. In addition, in the series on androgenetic alopecia (setting [3]), the “Percentage of bulbs in the anagen phase at T2, Group A)” value is 83%; the “Percentage of bulbs in the anagen phase at T2, Group B)” value was determined as 74%; the “Percentage of bulbs in the anagen phase at T2, Group C)” value was determined as 61%. Moreover, the “Side effects after using the product” value in the series with androgenetic alopecia (androgenetic alopecia group) was “None of the individuals showed any side effects”. Also, in the series on androgenetic alopecia (setting [4]), the “Cases with increase in hair shaft diameter judged highly significant (A)” value amounted to 62%, the “Cases with increase in hair shaft diameter judged not significant (C)” value is 17% and the “Cases with increase in hair shaft diameter judged significant (B)” value amounted to 21%. Moreover, in the series with alopecia greata (setting [5]), the “Individuals in whom defluvium of hair in the affected areas diminished” value stood at 55%; the “Individuals with stabilisation of the bald patches” value was determined as 15%; the “Individuals with stoppage in the progression and slight reduction in the extent of the bald patches” value was determined as 43%. The “Number of exclamation mark hairs at T2, individuals with stabilisation or slight improvement in bald patches” value in the series with alopecia greata (T2, mean 82% at T0) is 46%. Besides, in the series with alopecia greata (T2, mean 83% at T0), the “Number of exclamation mark hairs at T2, individuals with worsening bald patches” value came to 82%. Moreover, the “Side effects after using the product” value in the series on alopecia greata (alopecia greata group) was “None of the individuals revealed any side effects”. The “Individuals treated with global trend towards an improvement (clinical improvement and stabilisation of the bald patches)” value with alopecia greata (three months of treatment) was 58%.
As for 2,4,6-octatrienoic acid salt, the “Prevention of premature apoptosis and catagen in transplanted hair follicles (result in words)” value in series [1] is recorded as “promising”.
